Test [1] relates to NIDDM male mice (C57BLKS/J-m+/+Lepr db). Nature of the test: Therapeutic study: serum glucose levels in diabetic animals. The settings on record: i.p. twice daily. The format is in vivo. Here is the method: In vivo evaluation of the role of dual inhibitor of both 5-LO and 12/15-LO enzymes in the reduction of serum glucose levels and insulin was performed in C57BLKs/J-m+/+Lepr db mice, a non-insulin dependent diabetic mellitus (NIDDM) model, as described in Examples. […] […].
Non-insulin dependent diabetic mellitus (NIDDM) male mice (C57BLKS/J-m+/+Lepr db), weighing 45±5 g (10 weeks of age) and provided by Institute for Animal Reproduction (IAR, Japan), were used.
Groups of 10 non-insulin dependent diabetic mellitus (NIDDM) male mice (C57BLKS/J-m+/+Lepr db), weighing 45±5 g and 10-weeks-old, were used. The animals were housed in Individually Ventilated Cages Racks (IVC Racks) throughout the experiment; all animals were allowed free access to sterilized Lab chow and sterilized distilled water. The test compounds, as well as vehicle (0.5% DMSO/2% Tween 80/0.9% NaCl), were each administered intraperitoneally twice daily (1st at 9:00 A.M. and 2nd at 16:00 P.M.) for a total of 14 consecutive days. Using blood samples collected from the orbital sinus, pre-treatment serum glucose and insulin levels were determined 24 hours prior to the first dosing on day 0. Post-treatment glucose and insulin levels were detected 4 hours after dosing on days 11 and 14. Also, serum glucose and insulin levels were obtained before and 15, 30 and 90 minutes after glucose loading (orally glucose tolerance test (OGTT) 2 g/kg), 4 hours following the dosing on day 11. Serum glucose and Insulin (on days 0, 11 and 14) levels were determined by enzymatic (Mutaratase-GOD) and ELISA (mouse insulin assay kit) methods, respectively. The percentage of post-treatment relative to pre-treatment group values obtained on days 11 and 14 were analyzed using One Way ANOVA followed by Dunnett's test for comparison between vehicle and treated groups. […]
For effect on OGTT, AUC (area under the curve) for the serum glucose at times 0, 15, 30, and 90 minutes after OGTT was plotted for each test compound and its respective vehicle control. […] Body weight and food intake were measured daily through the course of the study.

For test [2], the target named is T1, 5-lipoxygenase (Homo sapiens, UniProt P09917).
T1 sequence (P09917 1-674): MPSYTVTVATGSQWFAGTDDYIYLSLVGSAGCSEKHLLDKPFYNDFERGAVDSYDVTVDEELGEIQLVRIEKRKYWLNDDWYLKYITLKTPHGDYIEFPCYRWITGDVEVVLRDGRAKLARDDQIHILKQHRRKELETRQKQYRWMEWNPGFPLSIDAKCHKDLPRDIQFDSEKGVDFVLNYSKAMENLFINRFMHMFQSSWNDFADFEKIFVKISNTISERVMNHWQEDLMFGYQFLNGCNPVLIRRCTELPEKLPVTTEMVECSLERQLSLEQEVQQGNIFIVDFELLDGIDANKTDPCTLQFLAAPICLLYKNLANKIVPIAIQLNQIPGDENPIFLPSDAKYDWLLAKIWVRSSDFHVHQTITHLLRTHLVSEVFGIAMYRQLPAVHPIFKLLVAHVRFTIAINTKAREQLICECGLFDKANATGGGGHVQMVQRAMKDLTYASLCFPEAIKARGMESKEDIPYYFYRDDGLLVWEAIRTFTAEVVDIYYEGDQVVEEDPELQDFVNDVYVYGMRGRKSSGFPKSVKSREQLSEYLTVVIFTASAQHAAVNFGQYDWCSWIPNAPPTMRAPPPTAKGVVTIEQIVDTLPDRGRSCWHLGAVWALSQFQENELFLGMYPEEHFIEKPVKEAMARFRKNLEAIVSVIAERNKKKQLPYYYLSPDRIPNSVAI
As to conditions: background; cited from earlier work.

In test [3] the target is T2, porcine leukocyte 12/15-lipoxygenase (Sus scrofa, UniProt P16469).
T2 construct: purchased Cayman 60300
T2 sequence (P16469 1-663): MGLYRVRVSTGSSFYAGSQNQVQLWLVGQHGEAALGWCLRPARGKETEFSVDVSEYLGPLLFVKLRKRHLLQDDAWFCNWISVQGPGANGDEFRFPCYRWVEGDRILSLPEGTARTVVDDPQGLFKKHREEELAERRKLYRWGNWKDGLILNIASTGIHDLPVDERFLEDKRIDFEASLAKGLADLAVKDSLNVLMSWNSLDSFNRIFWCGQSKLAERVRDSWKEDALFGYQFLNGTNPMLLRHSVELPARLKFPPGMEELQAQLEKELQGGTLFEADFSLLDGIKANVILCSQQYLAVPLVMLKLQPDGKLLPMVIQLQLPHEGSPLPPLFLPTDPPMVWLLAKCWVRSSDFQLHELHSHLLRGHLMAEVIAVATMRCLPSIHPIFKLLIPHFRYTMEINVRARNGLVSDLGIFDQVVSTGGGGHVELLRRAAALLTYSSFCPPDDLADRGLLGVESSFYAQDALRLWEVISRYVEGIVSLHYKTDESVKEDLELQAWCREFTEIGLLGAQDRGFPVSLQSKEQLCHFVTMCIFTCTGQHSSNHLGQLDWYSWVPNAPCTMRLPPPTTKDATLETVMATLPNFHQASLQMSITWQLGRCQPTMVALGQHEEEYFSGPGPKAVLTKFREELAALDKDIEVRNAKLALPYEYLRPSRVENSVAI
The test can be described thus: 12/15-Lipoxygenase Enzyme Assay (colorimetric, ferric oxidation of xylenol orange). The format is biochemical. As to the method:
This procedure was used for measuring the enzymatic activity of porcine leukocyte 12/15-lipoxygenase using a colorimetric method based on the ferric oxidation of xylenol orange.
(§1) The test compound and/or vehicle were added to 1.3 μL 12/15-lipoxygenase in 50 mM Tris-HCl buffer, pH 7.4. The reaction was initiated by addition of 70 μM arachidonic acid in Tris-HCl buffer, pH 7.4, and terminated after a 10 minute incubation at room temperature by addition of FOX reagent (25 mM sulphuric acid, 100 μM xylenol orange, 100 μM iron (II) sulphate, methanol:water 9:1). The yellow color of acidified xylenol orange was converted to a blue color by the lipid hydroperoxide-mediated oxidation of Fe^2+ ions and the interaction of the resulting Fe^3+ ions with the dye. The complex was allowed to form during a 1 hour incubation at room temperature with shaking. Absorbance of the Fe^3+ complex was then measured at 620 nm using a spectrophotometer.
Negative controls contained enzyme during the incubation step but substrate was not added until after the FOX reagent.

For test [4], the target named is T1, 5-lipoxygenase. Nature of the test: 5-Lipoxygenase Enzyme Assay (colorimetric, ferric oxidation of xylenol orange). Also noted: purchased Cayman 60402. The format is biochemical. Here is the method:
This procedure was used for measuring the enzymatic activity of human recombinant 5-lipoxygenase using a colorimetric method based on the ferric oxidation of xylenol orange.
as §1, with “was” for “were”, “0.5” for “1.3”, “5-lipoxygenase” for “12/15-lipoxygenase”, “spectrophotometer. Negative controls contained enzyme during the incubation step but substrate was not added until after the FOX reagent.” for “spectrophotometer.”

The mark [5] stands for this setting: read-out: classification as dual inhibitor: 12/15-LO enzyme assay IC50.
Where [6] appears, read: read-out: classification as dual inhibitor: 5-LO enzyme assay IC50.

Where two headings read alike, the source gives them in different places. Where only a bound is given, the exact number is not on record here.

With `CC(c1cc2ccccc2s1)N(O)C(N)=O` (centres unmarked) [C, Zileuton, reference compound], the “reduction in serum glucose relative to the respective vehicle control group (FIG. 2)” value in test [1] (30 mg/kg, p<0.01) was “reduction in serum glucose”. Besides, the “5-lipoxygenase inhibition / specificity as reported in the literature” value in test [2] is “specific”.
With `CC(Cc1ccc(O)c(O)c1)C(C)Cc1ccc(O)c(O)c1` (centres unmarked) [Compound A, Nordihydroguaiaretic acid (NDGA)], in test [2], the “5-lipoxygenase inhibition / specificity as reported in the literature” value is “inhibitor”.
As to `Cc1c(O)c(C)c2c(c1F)OC(C)(C)CC2` [Compound D, 8-fluoro-2,2,5,7-tetramethylchroman-6-ol], the IC50 in test [3] (setting [5]), in test [3] (read-out: in vitro IC50 value in a 12/15-LO enzyme assay), in test [4] (setting [6]) and in test [4] (read-out: in vitro IC50 value in a 5-LO enzyme assay) was less than 5 µM in each case. Besides, the “reduction in baseline elevated blood glucose level in comparison to the vehicle group” value in test [1] came to 13%.
As to `Cc1c(O)cc2c(c1C)N(c1ccc(O)cc1)C(C)CC2` (centres unmarked) [Compound E, 1-(4-hydroxyphenyl)-2,7,8-trimethyl-1,2,3,4-tetrahydroquinolin-6-ol], the IC50 in test [3] (setting [5]) and in test [4] (setting [6]) was less than 5 µM each time. In test [1] (15 mg/kg, p<0.05), the “lowering of serum glucose levels compared to respective control (FIG. 2)” value is recorded as “significant lowering”.

The values above are taken from patent publication US20060106014A1, “Methods for treating diabetes” (priority 2004, published 2006).
